From the NIST ThermoML archive (doi:10.1016/j.fluid.2016.08.002)

Experiment: xn = mol fraction of the nth substance listed
Conditions: Gas, Vibrating tube method

S [hydrogen sulfide] + C
Conditions	mass density [kg/m3]
293.33 K, 19012 kPa, x2 = 0.714	281.75
293.33 K, 19476 kPa, x2 = 0.714	286.23
293.33 K, 21863 kPa, x2 = 0.714	306.8
293.33 K, 26879 kPa, x2 = 0.714	337.31
293.33 K, 29517 kPa, x2 = 0.714	349.82
293.33 K, 29998 kPa, x2 = 0.714	352.02
293.34 K, 6006 kPa, x2 = 0.8197	58.11
293.34 K, 14027 kPa, x2 = 0.8197	162.75
293.34 K, 14501 kPa, x2 = 0.8197	169.12
293.34 K, 16524 kPa, x2 = 0.714	253.44
293.34 K, 17035 kPa, x2 = 0.714	260.09
293.34 K, 20081 kPa, x2 = 0.714	291.58
293.34 K, 20504 kPa, x2 = 0.714	295.67
293.34 K, 22090 kPa, x2 = 0.8197	248.06
293.35 K, 936 kPa, x2 = 0.8197	7.74
293.35 K, 2422 kPa, x2 = 0.8197	20.5
293.35 K, 4502 kPa, x2 = 0.8197	41.72
293.35 K, 11685 kPa, x2 = 0.8197	130.63
293.35 K, 17740 kPa, x2 = 0.714	267.95
293.35 K, 21512 kPa, x2 = 0.8197	243.53
293.36 K, 1962 kPa, x2 = 0.8197	16.56
293.36 K, 12068 kPa, x2 = 0.8197	136.11
293.36 K, 12506 kPa, x2 = 0.8197	142.15
293.36 K, 13036 kPa, x2 = 0.8197	149.41
293.36 K, 13500 kPa, x2 = 0.8197	155.72
293.37 K, 10013 kPa, x2 = 0.8197	107.38
293.37 K, 15006 kPa, x2 = 0.8197	175.59
293.37 K, 22488 kPa, x2 = 0.8197	251.05
293.37 K, 26028 kPa, x2 = 0.8197	274.53
293.37 K, 27520 kPa, x2 = 0.8197	283
293.37 K, 29405 kPa, x2 = 0.8197	292.65
293.37 K, 29932 kPa, x2 = 0.8197	295.13
293.38 K, 2915 kPa, x2 = 0.8197	26.63
293.38 K, 27986 kPa, x2 = 0.8197	285.56
293.38 K, 28437 kPa, x2 = 0.8197	287.96
293.38 K, 28979 kPa, x2 = 0.8197	290.66
293.39 K, 5407 kPa, x2 = 0.714	58.83
293.39 K, 22971 kPa, x2 = 0.8197	254.58
293.39 K, 24024 kPa, x2 = 0.8197	261.83
293.39 K, 24659 kPa, x2 = 0.8197	266.01
293.4 K, 17009 kPa, x2 = 0.8197	200
293.4 K, 29019 kPa, x2 = 0.714	347.54
293.41 K, 16017 kPa, x2 = 0.8197	188.26
293.41 K, 17526 kPa, x2 = 0.8197	205.67
293.41 K, 19019 kPa, x2 = 0.8197	221.14
293.41 K, 19519 kPa, x2 = 0.8197	225.91
293.41 K, 20054 kPa, x2 = 0.8197	230.93
293.41 K, 21059 kPa, x2 = 0.8197	239.83
293.41 K, 23490 kPa, x2 = 0.8197	258.21
293.41 K, 25538 kPa, x2 = 0.8197	271.56
293.41 K, 27022 kPa, x2 = 0.8197	280.18
293.42 K, 3851 kPa, x2 = 0.714	38.01
293.42 K, 3941 kPa, x2 = 0.8197	35.88
293.42 K, 18033 kPa, x2 = 0.8197	211.2
293.42 K, 18536 kPa, x2 = 0.8197	216.41
293.42 K, 20511 kPa, x2 = 0.8197	234.95
293.42 K, 25034 kPa, x2 = 0.8197	268.44
293.42 K, 26523 kPa, x2 = 0.8197	277.36
293.42 K, 28586 kPa, x2 = 0.714	345.52
293.43 K, 4386 kPa, x2 = 0.714	46.59
293.43 K, 28085 kPa, x2 = 0.714	343.33
293.44 K, 4823 kPa, x2 = 0.714	51.27
293.45 K, 15532 kPa, x2 = 0.8197	182.32
293.45 K, 16485 kPa, x2 = 0.8197	193.92
293.53 K, 27520 kPa, x2 = 0.714	340.85
293.64 K, 27145 kPa, x2 = 0.714	339.08
